In PubChem BioAssay (NCI):
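1) Cells in 96-well plates. 2) Compound, 48 h, 5 concentrations. 3) Linear interpolation between surrounding doses. 4) Unreached endpoint = highest concentration. Here, GI50 denotes the concentration required for 50% inhibition of growth. The concentration for full growth arrest is given as TGI.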

What was measured:
Test in all cases: DTP human tumour cell line panel, 48 h
MALME-3M melanoma = test system: MALME-3M melanoma
TK-10 renal = test system: TK-10 renal
MDA-MB-231 breast = test system: MDA-MB-231 breast
OVCAR-4 ovarian = test system: OVCAR-4 ovarian
MDA-MB-435 = test system: MDA-MB-435
SK-MEL-2 melanoma = test system: SK-MEL-2 melanoma
SNB-75 CNS = test system: SNB-75 CNS
NCI/ADR-RES ovarian = test system: NCI/ADR-RES ovarian
PC-3 prostate = test system: PC-3 prostate
SF-539 CNS = test system: SF-539 CNS
CAKI-1 renal = test system: CAKI-1 renal
SNB-19 CNS = test system: SNB-19 CNS
SR leukemia = test system: SR leukemia
HOP-62 NSCLC = test system: HOP-62 NSCLC
NCI-H522 lung = test system: NCI-H522 lung
SK-MEL-5 melanoma = test system: SK-MEL-5 melanoma
UACC-257 melanoma = test system: UACC-257 melanoma
SK-MEL-28 melanoma = test system: SK-MEL-28 melanoma
RXF 393 renal = test system: RXF 393 renal
HCC-2998 colon = test system: HCC-2998 colon
A498 renal = test system: A498 renal
SF-295 CNS = test system: SF-295 CNS
DU-145 prostate = test system: DU-145 prostate
HT29 colon = test system: HT29 colon
NCI-H23 lung = test system: NCI-H23 lung
SF-268 CNS = test system: SF-268 CNS
HS 578T breast = test system: HS 578T breast
KM12 colon = test system: KM12 colon
OVCAR-5 ovarian = test system: OVCAR-5 ovarian

C=C1C(=O)O[C@H]2[C@H]1CC/C(COC(=O)/C=C\C(=O)NCc1ccc(Cn3c(=O)sn(-c4ccc(C#N)cc4)c3=O)cc1)=C\CC[C@@]1(C)O[C@@H]21
GI50 (MALME-3M melanoma): 830 nM | TGI (MALME-3M melanoma): 1580 nM | GI50 (TK-10 renal): 888 nM | TGI (TK-10 renal): 1610 nM | GI50 (MDA-MB-231 breast): 720 nM | TGI (MDA-MB-231 breast): 1740 nM | GI50 (OVCAR-4 ovarian): 672 nM | TGI (OVCAR-4 ovarian): 1370 nM | GI50 (MDA-MB-435): 744 nM | TGI (MDA-MB-435): 1500 nM | GI50 (SK-MEL-2 melanoma): 935 nM | TGI (SK-MEL-2 melanoma): 2030 nM | GI50 (SNB-75 CNS): 581 nM | TGI (SNB-75 CNS): 1330 nM | GI50 (NCI/ADR-RES ovarian): 1390 nM | TGI (NCI/ADR-RES ovarian): 5970 nM | GI50 (PC-3 prostate): 611 nM | TGI (PC-3 prostate): 1440 nM | GI50 (SF-539 CNS): 753 nM | TGI (SF-539 CNS): 1430 nM | GI50 (CAKI-1 renal): 354 nM | TGI (CAKI-1 renal): 1080 nM | GI50 (SNB-19 CNS): 969 nM | TGI (SNB-19 CNS): 2270 nM | GI50 (SR leukemia): 292 nM | TGI (SR leukemia): 50000 nM | GI50 (HOP-62 NSCLC): 2520 nM | TGI (HOP-62 NSCLC): 9000 nM | GI50 (NCI-H522 lung): 714 nM | TGI (NCI-H522 lung): 1650 nM | GI50 (SK-MEL-5 melanoma): 842 nM | TGI (SK-MEL-5 melanoma): 1550 nM | GI50 (UACC-257 melanoma): 812 nM | TGI (UACC-257 melanoma): 1660 nM | GI50 (SK-MEL-28 melanoma): 857 nM | TGI (SK-MEL-28 melanoma): 1610 nM | GI50 (RXF 393 renal): 576 nM | TGI (RXF 393 renal): 1220 nM | GI50 (HCC-2998 colon): 901 nM | TGI (HCC-2998 colon): 1760 nM | GI50 (A498 renal): 769 nM | TGI (A498 renal): 1550 nM | GI50 (SF-295 CNS): 3540 nM | TGI (SF-295 CNS): 9700 nM | GI50 (DU-145 prostate): 725 nM | TGI (DU-145 prostate): 1400 nM | GI50 (HT29 colon): 474 nM | TGI (HT29 colon): 1900 nM | GI50 (NCI-H23 lung): 861 nM | TGI (NCI-H23 lung): 1810 nM | GI50 (SF-268 CNS): 724 nM | TGI (SF-268 CNS): 1410 nM | GI50 (HS 578T breast): 987 nM | TGI (HS 578T breast): 2790 nM | GI50 (KM12 colon): 900 nM | TGI (KM12 colon): 1840 nM | GI50 (OVCAR-5 ovarian): 868 nM
